Experimental data: patent US9376423B2, “PKC-epsilon inhibitors” (The Regents of the University of California, priority 2010, dated 2016)
Where two headings read alike, the source gives them in different places.

What was measured:
Assay type in all cases: biochemical
PKCε [1] = biological target: T1, PKCε (Homo sapiens, UniProt Q02156); experiment: FRET based LANCE Ultra kinase assay
T1 sequence (Q02156 1-737): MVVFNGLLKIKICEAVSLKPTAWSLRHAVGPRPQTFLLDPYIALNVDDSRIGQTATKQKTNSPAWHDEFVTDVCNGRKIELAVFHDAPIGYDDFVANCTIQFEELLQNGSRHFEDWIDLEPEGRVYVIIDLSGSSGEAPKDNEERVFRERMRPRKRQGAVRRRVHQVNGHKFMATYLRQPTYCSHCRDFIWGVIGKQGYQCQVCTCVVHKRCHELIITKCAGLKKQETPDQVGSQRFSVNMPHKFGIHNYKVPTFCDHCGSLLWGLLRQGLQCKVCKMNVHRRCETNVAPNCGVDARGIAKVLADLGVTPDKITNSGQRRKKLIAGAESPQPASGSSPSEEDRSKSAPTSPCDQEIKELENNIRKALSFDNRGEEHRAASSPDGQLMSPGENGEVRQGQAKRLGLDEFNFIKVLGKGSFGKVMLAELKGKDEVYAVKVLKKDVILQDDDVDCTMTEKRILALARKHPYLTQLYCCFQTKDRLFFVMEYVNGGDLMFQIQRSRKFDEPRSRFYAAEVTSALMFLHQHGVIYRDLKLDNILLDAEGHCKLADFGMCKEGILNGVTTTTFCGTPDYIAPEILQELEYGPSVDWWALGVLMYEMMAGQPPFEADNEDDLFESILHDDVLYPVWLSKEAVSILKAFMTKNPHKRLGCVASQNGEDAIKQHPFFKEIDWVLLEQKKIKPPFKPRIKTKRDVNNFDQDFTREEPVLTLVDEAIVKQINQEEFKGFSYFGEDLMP
Protocol: Certain compounds of this invention were tested in the captioned assay.

PKCε [2] = biological target: T1, PKCε; experiment: Primary PKCε phosphotransferase assay; design: FLAG; made in house; host or cells: COS-7
Protocol: The assay mixture can contain 2 ng FLAG-tagged human PKCε expressed and purified from COS-7 cells in 25 μl kinase buffer containing 20 mM Tris-HCl, pH 7.4, 0.25 mM EGTA, 0.1 mg/ml BSA, 0.72% TritonX-100, 10 mM MgCl2, 0.48 μg/μl L-α-phosphatidylserine (PS) and 0.107 μg/μl sn-1,2-dioleoylglecerol (DG) (Avanti Polar Lipids, Alabaster, Ala., USA), 2 μM K(Biotin)-[…], 2.5 μM ATP and 0.05 μCi [^32γ-P]ATP. After incubation at 27° C. for 90 min, the reaction is terminated by adding 12.5 μl of 7.5 M of guanidine hydrochloride. Eight microliters of reaction mixture is spotted onto a pre-cut streptavidin-coated SAM Biotin Capture membrane. […] The membrane is then air dried at room temperature for 60 min and radioactivity remaining on the membrane can be measured by liquid scintillation counting. Specific PKCε activity can then be calculated as the difference between cpms detected in the presence and absence of lipids (PS and DG). Maximal PKCε activity (positive control) can be detected in reactions lacking an inhibitor. Complete inhibition (negative control) can be measured in the presence of the general PKC inhibitor 5 μM bisindolylmaleimide I. The normalized percent inhibition (NPI) can be calculated at each concentration of inhibitor by the formula: […]
IC50 values can be calculated from normalized dose-response curves by nonlinear regression analysis. […]

PKCγ = biological target: T2, PKCγ (Homo sapiens, UniProt P05129); experiment: Inhibition of conventional PKCγ (Example 4); details: 10 μM inhibitor; n = 3; read-out: Percent inhibition of PKC activity, PKCγ
T2 construct: purchased Invitrogen (Carlsbad, Calif., USA)
Text: (§1) Compound selectivity for inhibiting PKCε and not other PKC isozymes or ROCK1 can be determined according to the following assay. Specificity counter screens can be performed against one member of each subclass of PKCs (conventional, novel and atypical).
(§2) For example, to measure inhibition of conventional PKCγ, novel PKCδ, and atypical PKCζ, the same kinase assay disclosed above for PKCε can be used with recombinant human PKCγ, PKCδ, or PKCζ purchased from Invitrogen (Carlsbad, Calif., USA) in place of PKCε, with 0.4 mM CaCl2 assay buffer for PKCγ.

PKCδ = biological target: T3, PKCδ (Homo sapiens, UniProt Q05655); experiment: Inhibition of novel PKCδ (Example 4); details: n = 3; for inhibition at 10 µM: 10 μM inhibitor, read-out: Percent inhibition of PKC activity, PKCδ; for IC50: ± SE, read-out: Log IC50 (M) PKCδ (converted)
T3 construct: purchased Invitrogen (Carlsbad, Calif., USA)
Text: as §1, §2

PKCθ = biological target: T4, PKCθ (Homo sapiens, UniProt Q04759); experiment: Inhibition of novel PKCθ (Example 4); details: n = 3; for inhibition at 10 µM: 10 μM inhibitor, read-out: Percent inhibition of PKC activity, PKCθ; for IC50: ± SE, read-out: Log IC50 (M) PKCθ (converted)
T4 construct: purchased Invitrogen P2996
Text: Inhibition of PKC theta activity can be measured using the same primary phosphotransferase assay for PKCε except one substitutes recombinant human PKC theta purchased from Invitrogen for PKCε. PKC theta can also be assayed with a fluorescence polarization (FP) assay using the commercially available Protein Kinase C Assay Kit, Red, from Invitrogen (Product ID No P2941), essentially in accordance with the protocol supplied by the manufacturer. The substrate used is […] (MW 1561), which can be obtained from Invitrogen (Product ID No P2760). The isozyme PKC theta can be obtained from Invitrogen (Product ID No P2996).

PKCζ = biological target: T5, PKCζ (Homo sapiens, UniProt Q05513); experiment: Inhibition of atypical PKCζ (Example 4); details: for activity against atypical PKCζ: 10 μM; for inhibition at 10 µM: 10 μM inhibitor, n = 3, read-out: Percent inhibition of PKC activity, PKCζ
T5 construct: purchased Invitrogen (Carlsbad, Calif., USA)
T5 sequence (Q05513 1-592): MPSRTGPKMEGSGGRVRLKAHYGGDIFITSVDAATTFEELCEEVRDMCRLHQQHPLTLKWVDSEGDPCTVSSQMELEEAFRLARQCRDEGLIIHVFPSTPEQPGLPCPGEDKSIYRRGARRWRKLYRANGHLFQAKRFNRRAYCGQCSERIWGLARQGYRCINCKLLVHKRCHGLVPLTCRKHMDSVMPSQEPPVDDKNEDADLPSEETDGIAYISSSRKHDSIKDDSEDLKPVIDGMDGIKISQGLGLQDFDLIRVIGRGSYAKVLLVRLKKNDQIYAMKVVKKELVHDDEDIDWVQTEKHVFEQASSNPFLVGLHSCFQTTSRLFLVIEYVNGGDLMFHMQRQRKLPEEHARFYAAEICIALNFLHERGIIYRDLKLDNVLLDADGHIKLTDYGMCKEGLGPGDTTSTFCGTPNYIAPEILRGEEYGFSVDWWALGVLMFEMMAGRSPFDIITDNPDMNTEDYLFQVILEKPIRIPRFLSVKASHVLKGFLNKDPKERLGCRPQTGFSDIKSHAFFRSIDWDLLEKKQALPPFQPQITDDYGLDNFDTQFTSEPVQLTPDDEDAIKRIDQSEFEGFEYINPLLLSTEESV
Text: as §1, §2

PKCε [3] = biological target: T1, PKCε; experiment: Inhibition of PKCε (Example 4); details: for IC50: ± SE, read-out: Log IC50 (M) PKCε (converted)
[4] = selection criterion for Example 4, read-out: Ki for PKCε

T4 sequence (Q04759 whole entry): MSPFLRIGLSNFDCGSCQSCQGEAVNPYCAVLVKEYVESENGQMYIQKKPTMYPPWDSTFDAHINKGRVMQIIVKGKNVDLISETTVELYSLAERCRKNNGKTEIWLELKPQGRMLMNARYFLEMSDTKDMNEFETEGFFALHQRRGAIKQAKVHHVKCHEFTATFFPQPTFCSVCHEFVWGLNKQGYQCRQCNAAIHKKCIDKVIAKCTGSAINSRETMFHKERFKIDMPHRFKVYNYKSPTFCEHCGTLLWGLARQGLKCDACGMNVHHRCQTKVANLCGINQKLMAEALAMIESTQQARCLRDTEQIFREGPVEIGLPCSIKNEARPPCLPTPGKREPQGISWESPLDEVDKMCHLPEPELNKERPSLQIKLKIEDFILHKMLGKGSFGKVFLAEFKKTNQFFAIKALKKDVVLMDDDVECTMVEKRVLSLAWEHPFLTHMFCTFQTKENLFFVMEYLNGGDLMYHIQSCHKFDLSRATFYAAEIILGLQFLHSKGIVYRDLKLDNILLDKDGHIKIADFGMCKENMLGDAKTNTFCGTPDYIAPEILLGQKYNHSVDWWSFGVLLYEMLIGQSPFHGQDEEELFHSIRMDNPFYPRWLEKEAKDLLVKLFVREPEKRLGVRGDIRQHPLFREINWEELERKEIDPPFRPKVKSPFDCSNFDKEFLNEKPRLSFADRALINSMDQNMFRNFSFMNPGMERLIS
T3 sequence (Q05655 whole entry): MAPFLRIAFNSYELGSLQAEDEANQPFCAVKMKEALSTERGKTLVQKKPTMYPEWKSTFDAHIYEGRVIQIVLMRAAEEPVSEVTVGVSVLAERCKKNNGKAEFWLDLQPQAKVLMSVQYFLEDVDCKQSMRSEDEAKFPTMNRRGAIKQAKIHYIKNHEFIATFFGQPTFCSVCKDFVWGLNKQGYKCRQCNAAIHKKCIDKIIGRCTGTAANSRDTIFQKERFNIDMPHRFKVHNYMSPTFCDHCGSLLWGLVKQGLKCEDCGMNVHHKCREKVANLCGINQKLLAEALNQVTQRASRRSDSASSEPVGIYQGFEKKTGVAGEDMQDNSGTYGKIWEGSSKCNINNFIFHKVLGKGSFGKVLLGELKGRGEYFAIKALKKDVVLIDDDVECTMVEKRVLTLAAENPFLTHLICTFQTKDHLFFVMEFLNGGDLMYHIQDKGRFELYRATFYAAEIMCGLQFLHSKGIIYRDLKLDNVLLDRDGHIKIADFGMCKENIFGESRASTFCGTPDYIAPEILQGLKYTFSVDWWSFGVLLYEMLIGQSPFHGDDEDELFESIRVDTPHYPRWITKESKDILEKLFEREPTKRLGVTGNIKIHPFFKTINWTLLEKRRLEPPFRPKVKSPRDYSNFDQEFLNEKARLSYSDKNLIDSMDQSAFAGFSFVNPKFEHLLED

NC(CC(=O)NCC1(c2ccc(Cl)cc2)CC1)[C@H]1CC[C@H](C(=O)Nc2ccncc2)CC1 (relative stereo) [Compound 2, trans-4-[1-Amino-2-[[[1-(4-chlorophenyl)cyclopropyl]methylamino]carbonyl]ethyl]-N-4-pyridinyl-cyclohexylcarboxamide] showed an IC50 (PKCε [1]) of 3240 nM and an IC50 (PKCε [2]) of 1690 nM.

NC(CNC(=O)C1(c2ccc(F)cc2)CC1)[C@H]1CC[C@H](C(=O)Nc2ccncc2)CC1 (stereo partly shown) [Compound 3] gave an IC50 (PKCε [1]; read-out: Log IC50 (converted)) of 146 nM.

Compound NC(CNC(=O)C1(c2ccc(F)cc2Cl)CCCC1)[C@H]1CC[C@H](C(=O)Nc2ccncc2)CC1 (stereo partly shown) [Compound 4] has an IC50 (PKCε [1]; read-out: Log IC50 (converted)) of 121 nM.

Cl.NC(CNC(=O)C1(c2ccc(F)cc2)CCCC1)[C@H]1CC[C@H](C(=O)Nc2ccncc2)CC1 (stereo partly shown) [Compound 5] was tested, and the IC50 (PKCε [1]; read-out: IC50) was 42.6 nM, the IC50 (PKCε [1]; read-out: Log IC50 (converted)) was 42.7 nM and the inhibition at 10 µM (PKCγ) was 17 ± 1.3%. For the same compound, the inhibition at 10 µM (PKCδ) was 96.4 ± 1%, the Ki (PKCδ) was 125 nM and the IC50 (PKCδ) was 5.25e-07 M. The inhibition at 10 µM (PKCθ) was 94.4 ± 1%, the Ki (PKCθ) was 86.9 nM and the IC50 (PKCθ) was 3.63e-07 M. The “activity against atypical PKCζ” value (PKCζ) was “almost no activity”, the inhibition at 10 µM (PKCζ) was 6.3 ± 2.1% and the Ki (PKCε [3]; n = 3, read-out: Ki (nM) PKCε) was 12.8 nM. It also gave a Ki (PKCε [3]; [4]) of less than 20 nM and an IC50 (PKCε [3]; n = 3) of 4.27e-08 M.

Compound NC(CNC(=O)C1(c2ccc(F)c(F)c2)CC1)[C@H]1CC[C@H](C(=O)Nc2ccncc2)CC1 (stereo partly shown) [Compound 6] has an IC50 (PKCε [1]; read-out: IC50) of 52.2 nM.

Compound CC(C)(C(=O)NCC(N)[C@H]1CC[C@H](C(=O)Nc2ccncc2)CC1)c1cccs1 (stereo partly shown) [Compound 7] has an IC50 (PKCε [1]; read-out: Log IC50 (converted)) of 280 nM.

NC(CNC(=O)C1CCc2cc(Cl)ccc21)[C@H]1CC[C@H](C(=O)Nc2ccncc2)CC1 (stereo partly shown) [Compound 8] gave an IC50 (PKCε [1]; read-out: Log IC50 (converted)) of 359 nM.

CC(C)(C(=O)NCC(N)[C@H]1CC[C@H](C(=O)Nc2ccncc2)CC1)c1ccc(Cl)cc1.Cl (stereo partly shown) [Compound 9] was tested, and the IC50 (PKCε [1]; read-out: Log IC50 (converted)) was 40 nM, the inhibition at 10 µM (PKCγ) was 30 ± 3.3% and the inhibition at 10 µM (PKCδ) was 98.9 ± 0.6%. It also gave a Ki (PKCδ) of 66.5 nM, an IC50 (PKCδ) of 2.69e-07 M and an inhibition at 10 µM (PKCθ) of 99.6 ± 1.3%. The Ki (PKCθ) was 67 nM, the IC50 (PKCθ) was 2.75e-07 M and the “activity against atypical PKCζ” value (PKCζ) was “almost no activity”. The inhibition at 10 µM (PKCζ) was 8.9 ± 1.8%, the Ki (PKCε [3]; n = 3, read-out: Ki (nM) PKCε) was 9.3 nM and the Ki (PKCε [3]; [4]) was less than 20 nM. For the same compound, the IC50 (PKCε [3]; n = 3) was 3.8e-08 M.

With NC(C(=O)NC1COc2ccccc21)[C@H]1CC[C@H](C(=O)Nc2ccncc2)CC1 (stereo partly shown) [Compound 10] the IC50 (PKCε [1]; read-out: Log IC50 (converted)) was 2020 nM.

For NC(C(=O)NC1CCCc2ccccc21)[C@H]1CC[C@H](C(=O)Nc2ccncc2)CC1 (stereo partly shown) [Compound 11], the IC50 (PKCε [1]; read-out: Log IC50 (converted)) was 3090 nM.

NC(C(=O)NCc1ccc(F)cc1)[C@H]1CC[C@H](C(=O)Nc2ccncc2)CC1 (stereo partly shown) [Compound 12] was tested, and the IC50 (PKCε [1]; read-out: Log IC50 (converted)) was 2370 nM.
